Data as given in publication PMC10317887, “Hypoglycaemia frequency and physiological response after double or triple doses of once-weekly insulin icodec vs once-daily insulin glargine U100 in type 2 diabetes: a randomised crossover trial” (Diabetologia, 2023).
Read-outs that look alike come from different tables or passages of the source.

Assays:
[1] = tested on: individuals with type 2 diabetes; type: in vivo, human; conditions: for Mean PGnadir, treatment ratio (95% CI) icodec vs glargine U100 / Mean PGnadir, estimated geometric mean: all participants; for Time to recovery from PGnadir to PG5.5 mmol/l, estimated geometric mean: constant i.v. glucose 5.5 mg kg^−1 min^−1; for Time to recovery from PGnadir to PG5.5 mmol/l, estimated geometric mean / Glucose needed from PGnadir to PG5.5 mmol/l, estimated geometric mean: individuals with PG <3.3 mmol/l at initiation of recovery; for Time to decline from PG5.5 mmol/l to PG3.9 mmol/l, estimated geometric mean: individuals with PG decline to <3.0 mmol/l and/or hypoglycaemia symptoms; for Time to decline from PG5.5 mmol/l to PG3.0 mmol/l, estimated geometric mean: individuals with PG decline to <3.0 mmol/l; for Mean PGnadir in the subgroup analysis: subgroup PGnadir <3.0 mmol/l and/or symptoms
Experimental: During the two treatment periods, participants received once-weekly icodec for 6 weeks or once-daily glargine U100 for 11 days in randomised order. […] Treatment periods were separated by 35–49 days of washout following icodec and 4–11 days of washout following glargine U100. Icodec (4200 nmol/ml; Novo Nordisk, Bagsværd, Denmark) was administered s.c. in the left thigh at 20:00 hours by qualified site staff using a NovoPen 4 pen injector (Novo Nordisk). […] At the start of week 1, a one-time additional 100% icodec dose was administered to accelerate time to steady state, followed by a normal dose at week 2, a double dose at week 3 (prior to hypoglycaemia induction), no dose at week 4 (due to the double dose given the week before), a normal dose at week 5, and a triple dose at week 6 (prior to hypoglycaemia induction). Insulin glargine U100 (100 U/ml [600 nmol/ml]; Sanofi, Paris, France) was administered s.c. in the right thigh at 09:00 hours by qualified site staff using a SoloStar pen injector (Sanofi). A normal dose of once-daily glargine U100 was established during run in. Glargine U100 was administered at a normal dose for 3 days followed by a double dose on day 4 (prior to hypoglycaemia induction), no dose on day 5 (due to the double dose given the day before), then a normal dose for 5 days, and a triple dose on day 11 (prior to hypoglycaemia induction).
Hypoglycaemia induction was carried out during weeks 3 (double dose) and 6 (triple dose) for icodec and on days 4 (double dose) and 11 (triple dose) for glargine U100 while at steady state. To initiate hypoglycaemia induction, participants should not have experienced hypoglycaemia (PG <3.9 mmol/l) within 24 h or have any relevant medical condition that could confound the outcomes or pose unacceptable risk to the participant. Hypoglycaemia induction (Fig. 1b) was initiated at 16:00 hours 2 days after double/triple icodec dosing (44 h post dose) and on the day of double/triple glargine U100 dosing (7 h post dose). These timings were selected since they approximated the expected time of maximum glucose-lowering effect for both insulin products based on pharmacokinetic/pharmacodynamic modelling performed prior to the trial. For 7.5 h prior to hypoglycaemia induction, PG was kept at 5.5 mmol/l by variable i.v. infusion of glucose (20% wt/vol) or human soluble insulin (100 U/ml in 99.6 ml saline [154 mmol/l NaCl]). PG was measured by a Super GL2 Glucose Analyzer (Dr. Müller Gerätebau, Freital, Germany). Insulin infusion was terminated 60 min prior to hypoglycaemia induction at the latest. PG was maintained at 5.5 mmol/l±20% from 60 min to 30 min prior to hypoglycaemia induction and at 5.5 mmol/l±10% during the last 30 min prior to hypoglycaemia induction. Hypoglycaemia induction was initiated by terminating glucose infusion, thereby allowing PG to decline towards the minimum (nadir) PG target level of no less than 2.5 mmol/l. The handling of alternative scenarios, e.g. PGnadir >2.5 mmol/l, slow PG decline towards hypoglycaemia or slow recovery from hypoglycaemia, is described in electronic supplementary material (ESM) Methods. The investigator recorded if the PGnadir was <3.0 mmol/l or ≥3.0 mmol/l with hypoglycaemic symptoms. The PGnadir level was maintained for 15 min by variable i.v. glucose as needed. Subsequently, euglycaemia was restored by constant i.v. glucose (5.5 mg kg^−1 min^−1) until PG was 5.5 mmol/l, which was maintained until the next morning (between 07:00 hours and 09:00 hours) by variable i.v. glucose. During hypoglycaemia induction, participants remained fasted (except for water ad libitum) and stayed in a supine or semi-supine position (except when cognitive tests were performed). Participants stayed at the clinical site for at least 12 h following each hypoglycaemia induction experiment. […]

[2] = tested on: individuals with type 2 diabetes; experiment: Safety: adverse events and non-induced hypoglycaemic episodes during treatment periods
Excerpt: Safety assessments during the trial included adverse events (AEs), hypoglycaemic episodes (other than those induced), vital signs (other than those assessed during hypoglycaemia induction), electrocardiograms, physical examinations and clinical laboratory assessments (haematology, biochemistry and urinalysis).
AEs and hypoglycaemic episodes (other than those induced) during the treatment periods were summarised. The end of each treatment period was defined as 7 days after the last icodec dose and 2 days after the last glargine U100 dose. […] Hypoglycaemic episodes were classified as level 1 (PG <3.9 mmol/l and ≥3.0 mmol/l), level 2 (PG <3.0 mmol/l) and level 3 (severe cognitive impairment requiring assistance for recovery) [20].

adrenaline (epinephrine) = experiment: Counterregulatory hormone response: plasma adrenaline (LC-MS); type: in vivo, human; conditions: for Adrenaline at PG3.0 mmol/l, estimated geometric mean / Adrenaline at PGnadir, estimated geometric mean: plasma, subgroup
Experimental: Plasma concentrations of glucagon were measured by an enzyme-linked immunosorbent assay (Mercodia AB, Uppsala, Sweden). Plasma concentrations of adrenaline (epinephrine) and noradrenaline (norepinephrine) were measured by liquid chromatography-mass spectrometry (Thermo Fisher Scientific, Dreieich, Germany). Serum concentrations of cortisol and growth hormone were measured by electrochemiluminescent immunoassays (Roche Diagnostics, Mannheim, Germany).

[3] = tested on: individuals with type 2 diabetes; experiment: Continuous glucose monitoring (CGM) after double and triple doses
Experimental: In addition to self-measured PG, which was performed throughout the trial, and PG measurements performed at the clinical site, continuous glucose monitoring (CGM) was conducted from the first dose of the first treatment period until the end of the second treatment period (Dexcom G6; Dexcom, San Diego, CA, USA). CGM data were visible to the participants and the investigators but were not used for titration of basal insulin dose or for reporting hypoglycaemia.
CGM data were summarised from the time of double or triple dose until the next insulin administration (excluding the period of hypoglycaemia induction experiments), thereby eliminating any confounding effect of other insulin.

[4] = double dose, n=15 icodec, 13 glargine U100
[5] = double dose, n=20 icodec, 19 glargine U100
[6] = double dose, n=17 icodec, 15 glargine U100
[7] = triple dose, n=18 icodec, 22 glargine U100
[8] = triple dose, n=20 icodec, 29 glargine U100
[9] = triple dose, n=20 icodec, 28 glargine U100
[10] = treatment periods, outside hypoglycaemia induction experiments
[11] = after double dose: first 2 weeks (icodec) / first 48 h (glargine U100), participants with clinically significant hypoglycaemia during induction
[12] = after triple dose: first week (icodec) / first 48 h (glargine U100), participants with clinically significant hypoglycaemia during induction

Substance: insulin icodec
- Time to full recovery from hypoglycaemia ([1]; constant i.v. glucose infusion at 5.5 mg kg^−1 min^−1, double and triple doses): ≤ 30 min
- Glucose needed from PGnadir to PG5.5 mmol/l, treatment ratio (95% CI) icodec vs glargine U100 ([1]; double dose): 1.27 (1.05, 1.53)
- Time to decline from PG5.5 mmol/l to PG3.0 mmol/l, treatment ratio (95% CI) icodec vs glargine U100 ([1]; double dose): 0.64 (0.31, 1.33)
- Time to decline from PG5.5 mmol/l to PG3.9 mmol/l, treatment ratio (95% CI) icodec vs glargine U100 ([1]; double dose): 0.62 (0.48, 0.78)
- Time to recovery from PGnadir to PG5.5 mmol/l, treatment ratio (95% CI) icodec vs glargine U100 ([1]; double dose): 1.34 (1.16, 1.55)
- Mean PGnadir, treatment ratio (95% CI) icodec vs glargine U100 ([1]; double dose): 0.97 (0.94, 1.00)
- Mean PGnadir, estimated geometric mean ([1]; double dose, n=43 icodec, 42 glargine U100): 3.2 mmol/L
- Time to recovery from PGnadir to PG5.5 mmol/l, estimated geometric mean [1, 4]: 28.3 min
- Glucose needed from PGnadir to PG5.5 mmol/l, estimated geometric mean [1, 4]: 141 mg/kg
- Time to decline from PG5.5 mmol/l to PG3.9 mmol/l, estimated geometric mean [1, 5]: 0.7 h
- Time to decline from PG5.5 mmol/l to PG3.0 mmol/l, estimated geometric mean [1, 6]: 2.9 h
- Mean PGnadir in the subgroup analysis, treatment ratio [95% CI] icodec vs glargine U100 ([1]; double dose): 1.01
- Mean PGnadir in the subgroup analysis ([1]; double dose): 2.9 mmol/L
- Glucose needed from PGnadir to PG5.5 mmol/l, treatment ratio (95% CI) icodec vs glargine U100 ([1]; triple dose): 1.02 (0.83, 1.24)
- Time to decline from PG5.5 mmol/l to PG3.0 mmol/l, treatment ratio (95% CI) icodec vs glargine U100 ([1]; triple dose): 1.05 (0.68, 1.64)
- Time to decline from PG5.5 mmol/l to PG3.9 mmol/l, treatment ratio (95% CI) icodec vs glargine U100 ([1]; triple dose): 0.90 (0.78, 1.04)
- Time to recovery from PGnadir to PG5.5 mmol/l, treatment ratio (95% CI) icodec vs glargine U100 ([1]; triple dose): 1.02 (0.82, 1.28)
- Mean PGnadir, treatment ratio (95% CI) icodec vs glargine U100 ([1]; triple dose): 1.07 (1.04, 1.11)
- Mean PGnadir, estimated geometric mean ([1]; triple dose, n=38 icodec, 40 glargine U100): 3.1 mmol/L
- Time to recovery from PGnadir to PG5.5 mmol/l, estimated geometric mean [1, 7]: 23.8 min
- Glucose needed from PGnadir to PG5.5 mmol/l, estimated geometric mean [1, 7]: 116 mg/kg
- Time to decline from PG5.5 mmol/l to PG3.9 mmol/l, estimated geometric mean [1, 8]: 0.7 h
- Time to decline from PG5.5 mmol/l to PG3.0 mmol/l, estimated geometric mean [1, 9]: 2.4 h
- Mean PGnadir in the subgroup analysis, treatment ratio [95% CI] icodec vs glargine U100 ([1]; triple dose): 1.05
- Mean PGnadir in the subgroup analysis ([1]; triple dose): 2.9 mmol/L
- Number of level 2 hypoglycaemic episodes ([2]; from end of hypoglycaemia induction experiment until 1 week after triple dose): six episodes in five individuals
- Number of level 2 hypoglycaemic episodes ([2]; from end of hypoglycaemia induction experiment until 2 weeks after double dose): four episodes in three individuals
- Duration of level 2 hypoglycaemic episodes, mean±SD ([2]; over both doses, treatment periods, outside induction): 25.3 ± 8.5 min
- AE rate ([2]; treatment periods): 10.9 AEs per participant-year of exposure
- Rate of clinically significant hypoglycaemic episodes (level 2, PG <3.0 mmol/l) [2, 10]: 3.4 episodes per participant-year of exposure
- Severe hypoglycaemic episodes (level 3) [2, 10]: no severe hypoglycaemic episodes
- Number of AEs reported ([2]; treatment periods, exposure 4.8 participant-years icodec, 1.6 glargine U100): 52 AEs
- Adrenaline at PG3.0 mmol/l, treatment ratio (95% CI) icodec vs glargine U100 (adrenaline (epinephrine); double dose): 0.90 (0.54, 1.52)
- Adrenaline at PGnadir, treatment ratio (95% CI) icodec vs glargine U100 (adrenaline (epinephrine); double dose): 0.90 (0.62, 1.30)
- Adrenaline at PG3.0 mmol/l, estimated geometric mean (adrenaline (epinephrine); [6]): 476.7 pmol/L
- Adrenaline at PGnadir, estimated geometric mean (adrenaline (epinephrine); [5]): 530.4 pmol/L
- Adrenaline at PG3.0 mmol/l, treatment ratio (95% CI) icodec vs glargine U100 (adrenaline (epinephrine); triple dose): 2.54
- Adrenaline at PGnadir, treatment ratio (95% CI) icodec vs glargine U100 (adrenaline (epinephrine); triple dose): 1.29 (0.88, 1.89)
- Adrenaline at PG3.0 mmol/l, estimated geometric mean (adrenaline (epinephrine); [9]): 793.8 pmol/L
- Adrenaline at PGnadir, estimated geometric mean (adrenaline (epinephrine); [8]): 735.8 pmol/L
- Percentage time spent with glucose <3.9 mmol/l (CGM), mean±SD ([3]; after double dose: first 2 weeks (icodec) / first 48 h (glargine U100), all participants): 0.99±2.12%
- Percentage time spent with glucose <3.0 mmol/l (CGM), mean±SD ([3]; after double dose: first 2 weeks (icodec) / first 48 h (glargine U100), all participants, induction period excluded): 0.15±0.44%
- Percentage time spent with glucose <3.0 mmol/l (CGM), mean±SD [3, 11]: 0.21±0.45%
- Percentage time spent with glucose <3.9 mmol/l (CGM), mean±SD [3, 11]: 1.63±2.75%
- Percentage time spent with glucose <3.9 mmol/l (CGM), mean±SD ([3]; after triple dose: first week (icodec) / first 48 h (glargine U100), all participants): 1.56±3.54%
- Percentage time spent with glucose <3.0 mmol/l (CGM), mean±SD ([3]; after triple dose: first week (icodec) / first 48 h (glargine U100), all participants, induction period excluded): 0.29±1.24%
- Percentage time spent with glucose <3.0 mmol/l (CGM), mean±SD [3, 12]: 0.56±1.70%
- Percentage time spent with glucose <3.9 mmol/l (CGM), mean±SD [3, 12]: 2.67±4.71%
